According to ChEMBL document CHEMBL4630908 (2021):
Activity calls are given as the source filed them. No cut-off for these calls is given here.

Tests used:
[1] = target: T1, Bromodomain-containing protein 3 (Homo sapiens, UniProt Q15059); experiment: TR-FRET assay (BRD3 BD1)
Target sequence in this assay (Q15059 whole entry): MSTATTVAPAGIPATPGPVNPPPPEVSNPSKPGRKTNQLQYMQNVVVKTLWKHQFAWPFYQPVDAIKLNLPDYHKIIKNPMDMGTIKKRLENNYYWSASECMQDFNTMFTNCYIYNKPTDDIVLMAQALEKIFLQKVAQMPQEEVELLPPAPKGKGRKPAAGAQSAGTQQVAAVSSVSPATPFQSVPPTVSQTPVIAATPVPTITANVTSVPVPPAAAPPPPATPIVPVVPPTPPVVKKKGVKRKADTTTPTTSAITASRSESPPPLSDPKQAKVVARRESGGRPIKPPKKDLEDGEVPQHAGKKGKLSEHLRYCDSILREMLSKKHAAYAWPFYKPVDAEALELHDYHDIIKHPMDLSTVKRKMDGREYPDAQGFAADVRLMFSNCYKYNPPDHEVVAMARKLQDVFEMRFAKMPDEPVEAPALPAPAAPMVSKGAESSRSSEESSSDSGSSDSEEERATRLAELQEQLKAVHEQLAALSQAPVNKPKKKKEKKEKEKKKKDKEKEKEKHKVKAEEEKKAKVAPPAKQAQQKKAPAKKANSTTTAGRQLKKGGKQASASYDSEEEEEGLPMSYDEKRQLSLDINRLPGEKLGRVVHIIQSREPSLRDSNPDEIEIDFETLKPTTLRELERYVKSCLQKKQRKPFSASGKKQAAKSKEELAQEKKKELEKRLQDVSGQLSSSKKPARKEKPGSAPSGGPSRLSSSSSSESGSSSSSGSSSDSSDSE

[2] = target: T1, Bromodomain-containing protein 3; experiment: BET mutant TR-FRET assay (BRD3 BD2)
[3] = target: T1, Bromodomain-containing protein 3; experiment: BRD3 BD2 Bromoscan (DiscoverX)
Target sequence in this assay (Q15059 whole entry): as above

[4] = target: Bromodomain testis-specific protein (Homo sapiens, UniProt Q58F21); experiment: BRDT BD2 Bromoscan (DiscoverX)
[5] = target: C-C motif chemokine 2 (Homo sapiens, UniProt P13500); experiment: In vitro inhibition of MCP-1 in Lipopolysaccharide-stimulated human whole blood; type: tissue-based
[6] = target: ATPase family AAA domain-containing protein 2 (Homo sapiens, UniProt Q6PL18); experiment: ATAD2A DiscoverX BROMOscan
[7] = target: Bromodomain-containing protein 9 (Homo sapiens, UniProt Q9H8M2); experiment: BRD9 DiscoverX BROMOscan
[8] = target: CREB-binding protein (Homo sapiens, UniProt Q92793); experiment: CREBBP DiscoverX BROMOscan
[9] = target: Histone acetyltransferase p300 (Homo sapiens, UniProt Q09472); experiment: EP300 DiscoverX BROMOscan
[10] = target: Protein polybromo-1 (Homo sapiens, UniProt Q86U86); experiment: PBRM1(2) DiscoverX BROMOscan
[11] = target: SWI/SNF-related matrix-associated actin-dependent regulator of chromatin subfamily A member 2 (Homo sapiens, UniProt P51531); experiment: SMARCA2 DiscoverX BROMOscan
[12] = target: Transcription initiation factor TFIID subunit 1 (Homo sapiens, UniProt P21675); experiment: TAF1(2) DiscoverX BROMOscan
[13] = target: Transcription intermediary factor 1-alpha (Homo sapiens, UniProt O15164); experiment: TRIM24(BROMO.) DiscoverX BROMOscan
[14] = target: E3 ubiquitin-protein ligase TRIM33 (Homo sapiens, UniProt Q9UPN9); experiment: TRIM33(PHD,Bromo.) DiscoverX BROMOscan
[15] = target: 5-hydroxytryptamine receptor 2C (Homo sapiens) (UniProt P28335); details: Compound concentration 10.0 uM
[16] = target: GABA-A receptor; anion channel (Rattus norvegicus) (UniProt O09028+P15431+P18506+P18508+P19969+P20236+P23574+P23576+P28471+P28473+P30191+P62813+P63079+P63138+Q91ZM7+Q9ES14); details: Compound concentration 10.0 uM
[17] = target: Alpha-1B adrenergic receptor (Homo sapiens) (UniProt P35368); details: Compound concentration 10.0 uM
[18] = target: Muscarinic acetylcholine receptor M1 (Homo sapiens) (UniProt P11229); details: Compound concentration 10.0 uM
[19] = target: Beta-3 adrenergic receptor (Homo sapiens) (UniProt P13945); details: Compound concentration 10.0 uM
[20] = target: Alpha-1D adrenergic receptor (Homo sapiens) (UniProt P25100); details: Compound concentration 10.0 uM

Sequence of Transcription initiation factor TFIID subunit 1 (P21675 whole entry): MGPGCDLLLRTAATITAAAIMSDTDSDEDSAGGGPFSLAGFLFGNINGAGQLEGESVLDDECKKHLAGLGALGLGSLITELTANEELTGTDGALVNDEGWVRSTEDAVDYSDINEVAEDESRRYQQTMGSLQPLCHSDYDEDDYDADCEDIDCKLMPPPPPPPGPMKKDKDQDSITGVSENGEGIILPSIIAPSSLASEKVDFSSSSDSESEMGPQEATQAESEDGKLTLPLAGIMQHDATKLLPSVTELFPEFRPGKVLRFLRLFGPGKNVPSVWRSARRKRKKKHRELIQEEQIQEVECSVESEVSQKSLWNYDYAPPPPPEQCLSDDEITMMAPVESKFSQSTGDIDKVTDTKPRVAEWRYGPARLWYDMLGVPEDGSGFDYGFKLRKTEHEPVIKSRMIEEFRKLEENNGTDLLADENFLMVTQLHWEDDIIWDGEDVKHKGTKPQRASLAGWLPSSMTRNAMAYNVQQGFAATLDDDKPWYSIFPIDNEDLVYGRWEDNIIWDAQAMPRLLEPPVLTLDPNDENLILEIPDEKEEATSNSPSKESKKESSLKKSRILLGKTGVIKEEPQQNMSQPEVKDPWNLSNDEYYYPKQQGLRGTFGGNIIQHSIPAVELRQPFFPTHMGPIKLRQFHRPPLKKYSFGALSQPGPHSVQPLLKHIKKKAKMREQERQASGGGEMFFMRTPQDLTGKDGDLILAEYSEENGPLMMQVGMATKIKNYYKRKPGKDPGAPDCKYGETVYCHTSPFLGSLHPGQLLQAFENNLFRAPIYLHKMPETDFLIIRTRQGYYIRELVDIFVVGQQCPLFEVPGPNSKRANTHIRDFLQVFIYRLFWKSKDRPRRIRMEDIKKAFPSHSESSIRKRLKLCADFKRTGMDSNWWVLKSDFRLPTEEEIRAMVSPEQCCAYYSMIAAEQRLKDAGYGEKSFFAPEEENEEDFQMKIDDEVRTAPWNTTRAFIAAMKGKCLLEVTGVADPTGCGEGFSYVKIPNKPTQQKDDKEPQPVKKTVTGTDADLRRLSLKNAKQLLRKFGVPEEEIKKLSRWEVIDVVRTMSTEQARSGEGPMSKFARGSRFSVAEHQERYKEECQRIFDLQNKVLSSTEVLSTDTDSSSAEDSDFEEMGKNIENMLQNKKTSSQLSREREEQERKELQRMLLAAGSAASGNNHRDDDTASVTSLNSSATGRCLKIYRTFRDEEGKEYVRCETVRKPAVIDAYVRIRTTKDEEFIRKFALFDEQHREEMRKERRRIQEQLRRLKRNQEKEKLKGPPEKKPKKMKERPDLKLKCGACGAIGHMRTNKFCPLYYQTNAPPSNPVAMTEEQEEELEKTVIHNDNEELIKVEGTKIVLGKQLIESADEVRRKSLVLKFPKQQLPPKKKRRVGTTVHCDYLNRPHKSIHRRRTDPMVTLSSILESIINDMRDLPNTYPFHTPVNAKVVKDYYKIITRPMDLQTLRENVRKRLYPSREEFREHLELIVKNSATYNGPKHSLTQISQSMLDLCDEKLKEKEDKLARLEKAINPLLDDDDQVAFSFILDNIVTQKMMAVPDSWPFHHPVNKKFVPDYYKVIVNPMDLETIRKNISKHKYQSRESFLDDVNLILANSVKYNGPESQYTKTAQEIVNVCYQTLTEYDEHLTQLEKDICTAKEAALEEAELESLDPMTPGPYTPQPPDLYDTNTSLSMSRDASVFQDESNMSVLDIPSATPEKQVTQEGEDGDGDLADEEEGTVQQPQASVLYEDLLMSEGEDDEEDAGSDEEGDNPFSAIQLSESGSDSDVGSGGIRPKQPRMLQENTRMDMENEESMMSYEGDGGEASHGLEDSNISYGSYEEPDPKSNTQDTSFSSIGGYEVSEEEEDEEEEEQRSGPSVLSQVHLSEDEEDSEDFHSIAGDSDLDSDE
Sequence of Transcription intermediary factor 1-alpha (O15164 whole entry): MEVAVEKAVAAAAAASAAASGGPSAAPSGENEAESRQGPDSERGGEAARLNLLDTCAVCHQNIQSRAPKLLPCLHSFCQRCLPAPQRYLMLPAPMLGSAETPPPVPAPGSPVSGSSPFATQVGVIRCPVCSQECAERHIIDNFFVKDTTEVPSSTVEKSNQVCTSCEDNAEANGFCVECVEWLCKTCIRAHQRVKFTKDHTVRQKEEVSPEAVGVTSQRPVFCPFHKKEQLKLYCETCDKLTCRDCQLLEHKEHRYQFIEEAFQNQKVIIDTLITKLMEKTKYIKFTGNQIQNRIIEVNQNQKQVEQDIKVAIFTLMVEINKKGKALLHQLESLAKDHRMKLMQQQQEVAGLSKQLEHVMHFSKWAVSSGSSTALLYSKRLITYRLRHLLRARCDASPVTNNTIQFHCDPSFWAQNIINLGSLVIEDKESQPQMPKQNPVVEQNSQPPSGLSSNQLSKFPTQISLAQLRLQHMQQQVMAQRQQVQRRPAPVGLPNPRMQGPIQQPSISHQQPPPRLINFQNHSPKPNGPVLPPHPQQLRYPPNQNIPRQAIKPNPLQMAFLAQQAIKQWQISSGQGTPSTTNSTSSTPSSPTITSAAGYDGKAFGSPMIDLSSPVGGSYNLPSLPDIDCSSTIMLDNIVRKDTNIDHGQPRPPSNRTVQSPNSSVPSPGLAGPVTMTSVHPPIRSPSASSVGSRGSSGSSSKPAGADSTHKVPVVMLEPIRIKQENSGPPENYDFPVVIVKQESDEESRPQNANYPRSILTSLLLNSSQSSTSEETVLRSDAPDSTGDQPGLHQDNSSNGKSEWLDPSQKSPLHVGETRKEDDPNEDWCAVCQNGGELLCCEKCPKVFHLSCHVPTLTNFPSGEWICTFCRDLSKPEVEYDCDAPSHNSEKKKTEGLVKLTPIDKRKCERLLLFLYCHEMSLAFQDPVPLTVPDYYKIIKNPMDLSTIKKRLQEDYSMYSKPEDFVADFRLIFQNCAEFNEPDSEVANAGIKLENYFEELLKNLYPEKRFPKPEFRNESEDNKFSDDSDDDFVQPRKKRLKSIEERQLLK
Sequence of Bromodomain-containing protein 9 (Q9H8M2 whole entry): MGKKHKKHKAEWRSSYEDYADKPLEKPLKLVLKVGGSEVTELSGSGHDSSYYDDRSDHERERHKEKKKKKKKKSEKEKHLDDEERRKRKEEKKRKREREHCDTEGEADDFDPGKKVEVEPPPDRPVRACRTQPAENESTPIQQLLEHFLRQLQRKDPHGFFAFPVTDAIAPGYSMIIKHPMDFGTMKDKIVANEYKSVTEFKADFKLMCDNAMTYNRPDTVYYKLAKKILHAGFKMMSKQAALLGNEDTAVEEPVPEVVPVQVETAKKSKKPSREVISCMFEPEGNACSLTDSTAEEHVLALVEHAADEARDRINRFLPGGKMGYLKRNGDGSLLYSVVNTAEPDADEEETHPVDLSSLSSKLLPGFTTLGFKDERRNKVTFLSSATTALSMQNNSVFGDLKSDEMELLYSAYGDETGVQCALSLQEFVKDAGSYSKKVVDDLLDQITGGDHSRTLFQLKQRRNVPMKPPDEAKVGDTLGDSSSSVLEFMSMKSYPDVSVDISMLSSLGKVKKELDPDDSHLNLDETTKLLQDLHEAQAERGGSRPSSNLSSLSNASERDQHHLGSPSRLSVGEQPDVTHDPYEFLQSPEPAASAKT
Sequence of Alpha-1B adrenergic receptor (Homo sapiens) (P35368 whole entry): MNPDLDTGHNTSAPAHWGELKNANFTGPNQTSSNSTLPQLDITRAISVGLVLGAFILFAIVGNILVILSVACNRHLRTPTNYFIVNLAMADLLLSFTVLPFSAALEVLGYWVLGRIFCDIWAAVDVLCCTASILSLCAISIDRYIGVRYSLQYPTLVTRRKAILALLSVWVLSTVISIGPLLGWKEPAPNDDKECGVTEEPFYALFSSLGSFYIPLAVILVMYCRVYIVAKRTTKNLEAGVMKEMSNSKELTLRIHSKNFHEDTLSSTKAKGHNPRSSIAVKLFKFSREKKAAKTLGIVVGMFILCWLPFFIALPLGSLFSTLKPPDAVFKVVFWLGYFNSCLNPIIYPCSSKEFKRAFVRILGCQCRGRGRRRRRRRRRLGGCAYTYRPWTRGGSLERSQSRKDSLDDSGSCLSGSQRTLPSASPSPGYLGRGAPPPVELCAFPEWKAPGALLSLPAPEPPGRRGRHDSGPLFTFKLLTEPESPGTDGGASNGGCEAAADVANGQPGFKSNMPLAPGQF
Sequence of C-C motif chemokine 2 (P13500 whole entry, the tested form may be a part): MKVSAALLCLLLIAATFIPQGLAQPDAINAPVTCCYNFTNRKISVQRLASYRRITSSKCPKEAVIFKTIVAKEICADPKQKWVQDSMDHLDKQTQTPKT

CC(=O)Nc1c(F)cc(C(=O)N[C@H]2CC[C@H](O)CC2)cc1O[C@@H](C)c1ccccc1 [GSK046]
IC50 [1]: 36.3 µM (not active)
pIC50 [2]: 7
Kd [3]: 0.032 µM (active)
Kd [4]: 0.015 µM (active)
IC50 [5]: 0.316 µM (active)
Kd [6]: 30 µM
Kd [7]: 30 µM
Kd [8]: 30 µM
Kd [9]: 30 µM
Kd [10]: 30 µM
Kd [11]: 30 µM
Kd [12]: 30 µM
Kd [13]: 30 µM
Kd [14]: 30 µM
inhibition [15]: 14%
inhibition [16]: 15.3%
inhibition [17]: -0.75%
inhibition [18]: -4.64%
inhibition [19]: 17.5%
inhibition [20]: -6.01%
